These molecules were tested against T1, glucan synthase (GS) (Candida albicans, UniProt O13428) (assay: Glucan synthase inhibition (polymerization assay, 96-well, 3H-UDPG incorporation)). Details: glucan synthase prepared from Candida albicans MY1055; 60 min incubation at 22°C; read-out: Candida Albicans GS IC50 (ng/mL) (converted).
T1 construct: Extraction of GS activity from membranes was performed at a protein concentration of 5 mg/mL in extraction buffer; endogenous in cells; host or cells: Candida albicans MY1055 (membrane fraction, detergent extract, product entrapment)
T1 sequence (O13428 1-1897): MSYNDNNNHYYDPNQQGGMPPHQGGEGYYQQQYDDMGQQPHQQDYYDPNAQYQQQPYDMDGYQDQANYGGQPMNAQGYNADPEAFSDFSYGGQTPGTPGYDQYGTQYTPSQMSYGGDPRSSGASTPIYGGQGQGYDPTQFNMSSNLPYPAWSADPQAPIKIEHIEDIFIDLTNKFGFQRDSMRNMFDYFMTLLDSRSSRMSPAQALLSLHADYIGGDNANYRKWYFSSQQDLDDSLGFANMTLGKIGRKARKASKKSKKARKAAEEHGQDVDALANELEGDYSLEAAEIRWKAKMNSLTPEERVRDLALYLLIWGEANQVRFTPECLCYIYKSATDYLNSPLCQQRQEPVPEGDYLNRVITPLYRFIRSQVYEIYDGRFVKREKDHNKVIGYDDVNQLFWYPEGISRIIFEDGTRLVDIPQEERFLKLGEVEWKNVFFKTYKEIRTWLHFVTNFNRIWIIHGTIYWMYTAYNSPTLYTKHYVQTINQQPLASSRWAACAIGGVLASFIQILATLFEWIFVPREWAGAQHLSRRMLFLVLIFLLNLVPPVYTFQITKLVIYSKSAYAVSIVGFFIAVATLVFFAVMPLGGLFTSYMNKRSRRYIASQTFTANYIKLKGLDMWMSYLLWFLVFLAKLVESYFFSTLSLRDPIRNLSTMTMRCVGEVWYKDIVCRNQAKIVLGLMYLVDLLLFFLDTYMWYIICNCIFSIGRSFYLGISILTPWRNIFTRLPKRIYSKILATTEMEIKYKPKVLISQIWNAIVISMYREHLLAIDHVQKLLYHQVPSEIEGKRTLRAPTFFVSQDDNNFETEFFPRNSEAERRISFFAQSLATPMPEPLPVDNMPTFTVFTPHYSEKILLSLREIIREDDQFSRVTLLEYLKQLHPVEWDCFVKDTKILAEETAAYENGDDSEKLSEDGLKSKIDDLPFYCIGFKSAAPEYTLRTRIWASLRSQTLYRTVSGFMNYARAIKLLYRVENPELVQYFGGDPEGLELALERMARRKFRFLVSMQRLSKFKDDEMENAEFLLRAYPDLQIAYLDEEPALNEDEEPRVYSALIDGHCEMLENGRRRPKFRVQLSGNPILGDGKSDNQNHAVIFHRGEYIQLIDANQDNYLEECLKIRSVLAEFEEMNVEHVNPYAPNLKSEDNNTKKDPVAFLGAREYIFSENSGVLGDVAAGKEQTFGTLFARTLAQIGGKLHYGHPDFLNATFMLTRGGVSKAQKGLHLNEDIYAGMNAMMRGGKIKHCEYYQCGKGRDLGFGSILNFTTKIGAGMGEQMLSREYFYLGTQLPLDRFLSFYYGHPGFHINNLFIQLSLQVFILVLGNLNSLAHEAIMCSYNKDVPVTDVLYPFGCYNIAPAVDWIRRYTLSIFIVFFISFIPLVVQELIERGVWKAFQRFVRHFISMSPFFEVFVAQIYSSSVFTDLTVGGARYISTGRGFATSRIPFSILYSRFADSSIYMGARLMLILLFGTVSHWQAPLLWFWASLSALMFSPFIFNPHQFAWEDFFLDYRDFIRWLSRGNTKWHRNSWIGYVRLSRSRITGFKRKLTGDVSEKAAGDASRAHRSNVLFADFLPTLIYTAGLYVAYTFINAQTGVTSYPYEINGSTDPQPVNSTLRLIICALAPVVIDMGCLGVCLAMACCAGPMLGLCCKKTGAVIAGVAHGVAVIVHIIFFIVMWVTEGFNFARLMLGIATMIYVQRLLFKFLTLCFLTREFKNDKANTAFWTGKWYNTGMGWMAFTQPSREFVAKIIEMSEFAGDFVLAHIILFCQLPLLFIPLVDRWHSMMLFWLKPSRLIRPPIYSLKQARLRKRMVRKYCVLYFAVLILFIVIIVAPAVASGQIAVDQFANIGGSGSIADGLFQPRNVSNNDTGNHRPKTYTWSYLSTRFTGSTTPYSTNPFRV
T1 sequence (O42825 1-195 partner limits assumed): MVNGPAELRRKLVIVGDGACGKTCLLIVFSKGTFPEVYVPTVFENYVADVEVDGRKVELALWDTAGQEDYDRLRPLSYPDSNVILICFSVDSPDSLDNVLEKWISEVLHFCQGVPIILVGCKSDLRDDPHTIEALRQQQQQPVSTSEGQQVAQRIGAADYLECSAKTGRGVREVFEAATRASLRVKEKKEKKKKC
Type: biochemical
Experimental: The in vitro evaluation of glucan synthase inhibitory activity of compounds was measured in a polymerization assay in 96-well format. Each well contained 100 µL of ^3H-UDPG at 0.5 mM (6000 to 8000 dpm/nmol), 50 mM HEPES pH 7.5 (Sigma), 10% w/v glycerol (Sigma), 1.5 mg/mL bovine serum albumin (Sigma A 9647. Lot 44H0190), 25 mM KF (Fisher), 1 mM EDTA (Gibco ULTRAPURE), 25 µM GTP-γ-S, enzyme sufficient to give 3 to 6 nmoles incorporation during the 60 min incubation at 22°C, and test compound added from wells in 3-fold serial dilutions in 100% DMSO (1 µL/well). The reaction was stopped by the addition of 100 µL of 20% trichloroacetic acid. Plates were chilled for a minimum of 10 min, and precipitated glucan collected by filtration on GF/C plates (Packard UNIFILTER®-96), washed with 5 cycles of water (about 1 mL/well each cycle) using a Packard FILTERMATE HARVESTER. 40 µL/well scintillation fluid (Packard ULTIMA GOLD TM-XR) was added and the sealed plates counted in a WALLAC BETA counter in top-counting mode at an efficiency of approximately 40%.
Stock solutions were stored at 10 mg/mL in DMSO at -20°C. For each new enzyme preparation, the initial titration performed started at 1 mg/mL, which was prepared by making a 10-fold dilution in DMSO (5 µL to 50 µL). 40 µL of this stock was placed in column 12 of a round-bottomed 96-well microtiter plate. 40 µL DMSO was added to columns 1 to 11 in the same row and ten 3-fold serial dilutions performed, by transferring 20 µL from column 12 to column 11 etc., with 4 mixings before each transfer. No test compound was transferred to from column 2 to column 1. Duplicate aliquots of 1 µL of all 12 dilutions were then transferred to the side walls of a 96-well Bioblock 1.1 mL plate (Fisher brand) to create two rows.
Graphs of the primary data were created in PRISM software (the average of two determinations) using PRISM's curve fitting program (sigmoidal dose response non-linear regression). The amount of compound required to inhibit glucan synthase activity by 50% in this assay (IC50 - ng/mL) was calculated.
Routine analysis was performed with glucan synthase (GS) prepared from Candida albicans MY1055 by the following procedure: MY1055 was grown in 10 liters YPD medium (10 g yeast extract, 20 g tryptone, 20 g glucose per liter) with vigorous shaking at 30°C, to early stationary phase. Cells were harvested by centrifugation, the pellet was washed and frozen at -70°C until breakage. Thawed pellets were shaken with an equal volume of breakage buffer (50 mM HEPES pH 7.4, 10% glycerol, 1 mM EDTA, 1 mM PMSF, 1mM DTT) and 4 times their weight of 0.5 mm acid washed glass beads for 2 hours at 4°C. Extent of breakage was assessed visually at 40x magnification. After low speed centrifugation to remove cell debris, the supernatant was centrifuged at 100,000 x g for 60 min. to separate membranes plus ribosomes from cytoplasmic components. Membranes were further washed two additional times with breakage buffer using the same centrifugation conditions and finally suspended in breakage buffer at 25 to 30 mg/mL protein (Biorad) for storage at -70°C. Extraction of GS activity from membranes was performed at a protein concentration of 5 mg/mL in extraction buffer (50mM NaPO4 pH 7.5, 0.1 M KCl, 0.1M Na citrate, 20% glycerol, 5 µM GTP-γ-S, 1mM DTT, 1 mM PMSF, 3 µg/mL pepstatin) plus 0.25% W1 by gentle mixing at 4°C for 60 min, followed by centrifugation at 100,000 x g for 60 min. After centrifugation, clear supernatant was removed from a pellet consisting of a hard layer usually with small amounts of gelatinous unextracted membranes above it.
Trapping was initiated immediately by 5-fold dilution in trapping buffer (50 mM HEPES pH 7.5, 10 mM KF, 1 mM EDTA, 2 mg/mL BSA) plus 2.5 mM UDPG and 10µM GTP-γ-S. After incubation at 25°C for 60 to 90 minutes, glucan was harvested by low speed centrifugation (3,000 x g, 10 min). […]

Structure (SMILES)	IC50 [nM]
CNC1(CO[C@H]2[C@H](n3ncnc3-c3ccncc3)C[C@@]34COC[C@]2(C)[C@@H]3CC[C@H]2C4=CC[C@@]3(C)[C@H](C(=O)O)[C@@](C)([C@H](C)C(C)C)CC[C@]23C)CCOCC1 [Example 181, (1S,4aR,6aS,7R,8R,10aR,10bR,12aR,14R,15R)-8-[(1R)-1,2-dimethylpropyl]-14-[5-(4-pyridinyl)-1H-1,2,4-triazol-1-yl]-15-[[tetrahydro-4-(methylamino)-2H-pyran-4-yl]methoxy]-1,6,6a,7,8,9,10,10a,10b,11,12,12a-dodecahydro-1,6a,8,10a-tetramethyl-4H-1,4a-propano-2H-phenanthro[1,2-c]pyran-7-carboxylic acid]	10.8
CC(C)NC(=O)c1ncnn1[C@@H]1C[C@@]23COC[C@](C)([C@@H]2CC[C@H]2C3=CC[C@@]3(C)[C@H](C(=O)O)[C@@](C)([C@H](C)C(C)C)CC[C@]23C)[C@H]1OC[C@](C)(N)C(C)(C)C [Example 93, (1S,4aR,6aS,7R,8R,10aR,10bR,12aR,14R,15R)-15-[[(2R)-2-amino-2,3,3-trimethylbutyl]oxy]-8-[(1R)-1,2-dimethylpropyl]-14-[5-[[(1-methylethyl)amino]carbonyl]-1H-1,2,4-triazol-1-yl]-1,6,6a,7,8,9,10,10a,10b,11,12,12a-dodecahydro-1,6a,8,10a-tetramethyl-4H-1,4a-propano-2H-phenanthro[1,2-c]pyran-7-carboxylic acid]	20.3
CC(C)[C@@H](C)[C@@]1(C)CC[C@]2(C)[C@H]3CC[C@@H]4[C@@]5(COC[C@@]4(C)[C@@H](OC[C@](C)(N)C(C)C)[C@H](n4ncnc4-c4ccncn4)C5)C3=CC[C@@]2(C)[C@@H]1C(=O)O [Example 190, (1S,4aR,6aS,7R,8R,10aR,10bR,12aR,14R,15R)-15-[[(2R)-2-amino-2,3-dimethylbutyl]oxy]-8-[(1R)-1,2-dimethylpropyl]-14-[5-(4-pyrimidinyl)-1H-1,2,4-triazol-1-yl]-1,6,6a,7,8,9,10,10a,10b,11,12,12a-dodecahydro-1,6a,8,10a-tetramethyl-4H-1,4a-propano-2H-phenanthro[1,2-c]pyran-7-carboxylic acid]	4.18
CCC(N)(CC)CO[C@H]1[C@H](n2ncnc2C(=O)NC)C[C@@]23COC[C@]1(C)[C@@H]2CC[C@H]1C3=CC[C@@]2(C)[C@H](C(=O)O)[C@@](C)([C@H](C)C(C)C)CC[C@]12C [Example 101, (1S,4aR,6aS,7R,8R,10aR,10bR,12aR,14R,15R)-15-(2-amino-2-ethylbutoxy)-8-[(1R)-1,2-dimethylpropyl]-14-[5-[(methylamino)carbonyl]-1H-1,2,4-triazol-1-yl]-1,6,6a,7,8,9,10,10a,10b,11,12,12a-dodecahydro-1,6a,8,10a-tetramethyl-4H-1,4a-propano-2H-phenanthro[1,2-c]pyran-7-carboxylic acid]	18.7
CC(C)[C@@H](C)[C@@]1(C)CC[C@]2(C)[C@H]3CC[C@@H]4[C@@]5(COC[C@@]4(C)[C@@H](OC[C@](C)(N)C(C)(C)C)[C@H](n4ncnc4-c4ccncc4F)C5)C3=CC[C@@]2(C)[C@@H]1C(=O)O [Example 208, (1S,4aR,6aS,7R,8R,10aR,10bR,12aR,14R,15R)-15-[[(2R)-2-amino-2,3,3-trimethylbutyl]oxy]-8-[(1R)-1,2-dimethylpropyl]-14-[5-(3-fluoro-4-pyridinyl)-1H-1,2,4-triazol-1-yl]-1,6,6a,7,8,9,10,10a,10b,11,12,12a-dodecahydro-1,6a,8,10a-tetramethyl-4H-1,4a-propano-2H-phenanthro[1,2-c]pyran-7-carboxylic acid]	0.936
CC(C)[C@@H](C)[C@@]1(C)CC[C@]2(C)[C@H]3CC[C@@H]4[C@@]5(COC[C@@]4(C)[C@@H](OCC4(N)CCOCC4)[C@H](n4ncnc4-c4ccncn4)C5)C3=CC[C@@]2(C)[C@@H]1C(=O)O [Example 256, (1S,4aR,6aS,7R,8R,10aR,10bR,12aR,14R,15R)-15-[(4-aminotetrahydro-2H-pyran-4-yl)methoxy]-8-[(1R)-1,2-dimethylpropyl]-14-[5-(4-pyrimidinyl)-1H-1,2,4-triazol-1-yl]-1,6,6a,7,8,9,10,10a,10b,11,12,12a-dodecahydro-1,6a,8,10a-tetramethyl-4H-1,4a-propano-2H-phenanthro[1,2-c]pyran-7-carboxylic acid]	6.84

Reference: patent publication EP2326172B1, “ANTIFUNGAL AGENTS” (Scynexis, Inc., priority 2008, dated 2010)
